Measured values: ChEMBL document CHEMBL1201862, “PubChem BioAssay data set” (2004)
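Briefly, cells in 96-well plates were exposed to five compound concentrations for 48 h, and endpoints were estimated by linear interpolation. At the GI50, growth is halved.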 Active and inactive are the calls of the source. No stated cut-off is given here; in the data, active = GI50 up to about 1.1 µM and inactive = higher.

What was measured:
Test in all cases: inhibition of tumour cell growth, NCI panel, 48 h
[1] = system: 786-0
[2] = system: HCC 2998
[3] = system: UACC-257
[4] = system: CCRF-CEM
[5] = system: MDA-N
[6] = system: IGROV-1
[7] = system: A498
[8] = system: SW-620
[9] = system: UO-31
[10] = system: M14
[11] = system: OVCAR-8
[12] = system: ACHN
[13] = system: HL-60
[14] = system: OVCAR-3
[15] = system: MDA-MB-231
[16] = system: SF-295
[17] = system: A549
[18] = system: OVCAR-5
[19] = system: NCI-H226
[20] = system: K562

| SMILES | GI50 [1] | GI50 [2] | GI50 [3] | GI50 [4] | GI50 [5] | GI50 [6] | GI50 [7] | GI50 [8] | GI50 [9] | GI50 [10] | GI50 [11] | GI50 [12] | GI50 [13] | GI50 [14] | GI50 [15] | GI50 [16] | GI50 [17] | GI50 [18] | GI50 [19] | GI50 [20] |
| --- | --- | --- | --- | --- | --- | --- | --- | --- | --- | --- | --- | --- | --- | --- | --- | --- | --- | --- | --- | --- |
| CCOC(=O)c1nc2ccccc2nc1Nc1ccc(C(=O)OC)s1 | > 100 µM (inactive) | > 100 µM (inactive) | > 100 µM (inactive) | > 100 µM (inactive) | > 100 µM (inactive) | > 100 µM (inactive) | > 100 µM (inactive) | > 100 µM (inactive) | > 100 µM (inactive) | > 100 µM (inactive) | > 100 µM (inactive) | > 100 µM (inactive) | > 100 µM (inactive) | > 100 µM (inactive) | > 100 µM (inactive) | > 100 µM (inactive) | > 100 µM (inactive) | > 100 µM (inactive) |  |  |
| COc1ccc(C(=O)/C=C/c2ccc(O)c(O)c2F)c(OC)c1 | 4.43 µM (inactive) | 4.07 µM (inactive) | 9.08 µM (inactive) | 0.44 µM (active) | 3.23 µM (inactive) | 9.98 µM (inactive) | 8.51 µM (inactive) | 5.09 µM (inactive) | 2.56 µM (inactive) | 7.71 µM (inactive) | 7.76 µM (inactive) | 3.01 µM (inactive) |  | 1.05 µM (active) | 9.82 µM (inactive) | 5.41 µM (inactive) | 11 µM (inactive) | 10.7 µM (inactive) | 11.4 µM (inactive) | 2.56 µM (inactive) |
| CN1C(=O)CN(NC(=O)C2=C(O)c3ccc(Br)cc3S(=O)(=O)N2)C1=S | > 100 µM (inactive) | > 100 µM (inactive) | > 100 µM (inactive) | 19.2 µM (inactive) | 45.3 µM (inactive) | > 100 µM (inactive) | > 100 µM (inactive) | > 100 µM (inactive) | > 100 µM (inactive) | > 100 µM (inactive) | > 100 µM (inactive) | > 100 µM (inactive) | 33 µM (inactive) |  | > 100 µM (inactive) | > 100 µM (inactive) | > 100 µM (inactive) | > 100 µM (inactive) | > 100 µM (inactive) | 49.2 µM (inactive) |
| CCCc1[nH]nc(C(N)=O)c1/N=N/N(C)C | 65.5 µM (inactive) | > 100 µM (inactive) | > 100 µM (inactive) | 27 µM (inactive) | > 100 µM (inactive) | 28.5 µM (inactive) | 71.6 µM (inactive) | 63.7 µM (inactive) | 1.16 µM (inactive) | > 100 µM (inactive) | 76.2 µM (inactive) | 44.2 µM (inactive) | 8.34 µM (inactive) | > 100 µM (inactive) | > 100 µM (inactive) | 57.9 µM (inactive) | 42.4 µM (inactive) |  | 38.9 µM (inactive) | 2.56 µM (inactive) |
| CC(C)(C)OC(=O)NC(Cc1ccc(OCc2ccccc2)cn1)C(=O)N1CCCC1 (configuration not stated) | > 100 µM (inactive) | > 100 µM (inactive) | 37.4 µM (inactive) | 44.8 µM (inactive) | 55.8 µM (inactive) | > 100 µM (inactive) | > 100 µM (inactive) | > 100 µM (inactive) | > 100 µM (inactive) | > 100 µM (inactive) | 40.6 µM (inactive) | > 100 µM (inactive) | 49.1 µM (inactive) | 25.6 µM (inactive) | 80 µM (inactive) | 30.1 µM (inactive) | > 100 µM (inactive) | > 100 µM (inactive) |  | 67.8 µM (inactive) |
| Clc1ccc(/C(=C/c2ccccc2)Cn2ccnc2)cc1 | 30.5 µM (inactive) | 42.7 µM (inactive) | 30.5 µM (inactive) | 17.5 µM (inactive) | 16.8 µM (inactive) | 17.9 µM (inactive) | 22.6 µM (inactive) | 27.6 µM (inactive) | 3.39 µM (inactive) | 21.9 µM (inactive) | 26.9 µM (inactive) | 16.6 µM (inactive) | 14.3 µM (inactive) |  | 30.2 µM (inactive) | 12.7 µM (inactive) | 24.8 µM (inactive) | 44.9 µM (inactive) | 12.9 µM (inactive) | 5.42 µM (inactive) |
| Cc1cn(C(C)OCCN2C(=O)c3ccccc3C2=O)c(=O)[nH]c1=O (configuration not stated) | > 100 µM (inactive) | > 100 µM (inactive) | > 100 µM (inactive) | > 100 µM (inactive) | > 100 µM (inactive) | > 100 µM (inactive) | > 100 µM (inactive) | > 100 µM (inactive) | > 100 µM (inactive) | > 100 µM (inactive) | > 100 µM (inactive) | > 100 µM (inactive) |  | > 100 µM (inactive) | > 100 µM (inactive) | > 100 µM (inactive) | > 100 µM (inactive) | > 100 µM (inactive) | > 100 µM (inactive) | > 100 µM (inactive) |
| CC1(C)OC2COC3([C@@H]4OC(C)(C)O[C@@H]4CO)OC(C)(C)OC3C2O1 (some centres not stated) | > 100 µM (inactive) | > 100 µM (inactive) | > 100 µM (inactive) | > 100 µM (inactive) | > 100 µM (inactive) | > 100 µM (inactive) | > 100 µM (inactive) | > 100 µM (inactive) | > 100 µM (inactive) | > 100 µM (inactive) | > 100 µM (inactive) | > 100 µM (inactive) |  | > 100 µM (inactive) | > 100 µM (inactive) | > 100 µM (inactive) | > 100 µM (inactive) | > 100 µM (inactive) | > 100 µM (inactive) | > 100 µM (inactive) |
| O=C1/C(=C\c2cccc(Oc3ccccc3)c2)SC(c2ccccc2)N1Cc1ccccc1 (configuration not stated) | 34.8 µM (inactive) | 30.3 µM (inactive) | 26.6 µM (inactive) | 17.1 µM (inactive) | 17 µM (inactive) |  | 37.7 µM (inactive) | 38.3 µM (inactive) | 25.7 µM (inactive) | 22.4 µM (inactive) | 22.4 µM (inactive) | 52.8 µM (inactive) | 23.3 µM (inactive) | 23.5 µM (inactive) | 32.9 µM (inactive) | 35.3 µM (inactive) | 29.4 µM (inactive) | 57.3 µM (inactive) | 22.6 µM (inactive) | 29.9 µM (inactive) |
| CC(=O)CCCCC(=O)Nc1ccc(CC(NC(=O)OC(C)(C)C)C(=O)NCC(=O)OCc2ccccc2)cc1 (configuration not stated) | 21.7 µM (inactive) | 16.4 µM (inactive) |  |  | 21 µM (inactive) | 33.3 µM (inactive) | 23.1 µM (inactive) | 16.6 µM (inactive) | 22.7 µM (inactive) | 17.5 µM (inactive) | 20 µM (inactive) | 30.5 µM (inactive) | 19.5 µM (inactive) | 14.8 µM (inactive) | 22.5 µM (inactive) | 18.8 µM (inactive) | 53.7 µM (inactive) | 63.4 µM (inactive) | 34.8 µM (inactive) | 17.3 µM (inactive) |
| CN(C)c1ccc(/C=C/c2ccnc3ccccc23)cc1N | 12.6 µM (inactive) | 10.1 µM (inactive) | 2.42 µM (inactive) | 3 µM (inactive) | 3.1 µM (inactive) |  | 10.4 µM (inactive) | 12.4 µM (inactive) | 7.55 µM (inactive) | 10.6 µM (inactive) | 8.85 µM (inactive) | 10.3 µM (inactive) | 3.52 µM (inactive) | 2.32 µM (inactive) | 4.04 µM (inactive) | 11 µM (inactive) | 6.81 µM (inactive) | 13.7 µM (inactive) | 11.4 µM (inactive) | 3.98 µM (inactive) |
| CC(=O)OCCCOCn1c(Cc2ccccc2)c(C)c(=O)[nH]c1=O | > 100 µM (inactive) | > 100 µM (inactive) | > 100 µM (inactive) | > 100 µM (inactive) | > 100 µM (inactive) | > 100 µM (inactive) | > 100 µM (inactive) | > 100 µM (inactive) | > 100 µM (inactive) | > 100 µM (inactive) | > 100 µM (inactive) | > 100 µM (inactive) |  | > 100 µM (inactive) | > 100 µM (inactive) | > 100 µM (inactive) | > 100 µM (inactive) | > 100 µM (inactive) | > 100 µM (inactive) | > 100 µM (inactive) |
| C=CCOCn1cc(C)c(=O)[nH]c1=O | > 100 µM (inactive) | > 100 µM (inactive) | > 100 µM (inactive) | > 100 µM (inactive) | > 100 µM (inactive) | > 100 µM (inactive) | > 100 µM (inactive) | > 100 µM (inactive) | > 100 µM (inactive) | > 100 µM (inactive) | > 100 µM (inactive) | > 100 µM (inactive) | > 100 µM (inactive) |  | > 100 µM (inactive) | > 100 µM (inactive) | > 100 µM (inactive) |  | > 100 µM (inactive) | > 100 µM (inactive) |
| Cc1cn2c(/C=C3/C(=O)Nc4ccccc43)c(-c3ccccc3)nc2s1 | 17.2 µM (inactive) | > 100 µM (inactive) | > 100 µM (inactive) | > 100 µM (inactive) | > 100 µM (inactive) | 40.5 µM (inactive) | 72.3 µM (inactive) | 64.4 µM (inactive) | 23.2 µM (inactive) | > 100 µM (inactive) | 54.3 µM (inactive) | 32.2 µM (inactive) | > 100 µM (inactive) | 85.3 µM (inactive) | 18.7 µM (inactive) | 37.5 µM (inactive) | > 100 µM (inactive) | > 100 µM (inactive) |  | > 100 µM (inactive) |
| CC(=O)Nc1cccc(N2C(=O)/C(=C\c3cccc(Oc4ccccc4)c3)SC2c2ccccc2)c1 (configuration not stated) | > 100 µM (inactive) | > 100 µM (inactive) | > 100 µM (inactive) | 14.9 µM (inactive) | 28.1 µM (inactive) |  | > 100 µM (inactive) | 54.6 µM (inactive) | 47.9 µM (inactive) | > 100 µM (inactive) | 92.5 µM (inactive) | 99.8 µM (inactive) | 36.6 µM (inactive) | 50.7 µM (inactive) | > 100 µM (inactive) | > 100 µM (inactive) | 94.8 µM (inactive) | > 100 µM (inactive) | > 100 µM (inactive) | 25.6 µM (inactive) |
